How the values were obtained:
GLP-1 receptor = target: T1, GLP-1 receptor (Homo sapiens, UniProt P43220); test: GLP-1 activity assay (cAMP HTRF); format: cell-based; settings: U20S-GLP-1R stable transfected cell line, 30 minutes at 37°C
T1 construct: expressed in transfected cells
Procedure: The agonistic effect of the test substance on the GLP-1 receptor was determined using a U20S-GLP-1R stable transfected cell line and a HTRF detection method.
• 1. According to the experimental procedure of the cAMP-Gs Dynamic HTRF kit, the 5x Stimulation buffer (SB) provided in the kit was diluted to 1xSB with ddH2O. IBMX was added to the 1xSB solution to a final concentration of 500 µM to prevent degradation of cAMP. Then, a working solution of the test substance was prepared using 1xSB and subjected to a series of gradient dilutions. • 2. U2OS-GLP-1R cells were digested and collected. After resuspending and counting, the cell density was diluted to 2x10^6 cells/mL using 1xSB solution. Then, 5 µL per well was seeded into a 384-well cell culture plate, resulting in 10,000 cells per well. • 3. The test substances were added at different concentrations into the corresponding cell wells at 5 µL per well, and incubated in a 37°C incubator for 30 minutes. • 4. According to the steps provided by the cAMP-Gs Dynamic HTRF kit, cAMP standard solutions of different concentrations were prepared and added into the 384-well plate. • 5. The cAMP d2 reagent and Eu Cryptate antibody provided in the kit were diluted to 1x using Lysis & Detection Buffer. Then, d2 and Eu solutions were added to the 384-well plate, 5 µL each well. After incubation at room temperature for 2 hours, the plate was read using the HTRF module (665/620 nm) of a microplate reader, and experimental data was collected. • 6. A curve was plotted using the signal value versus the compound concentration. Curve fitting and EC50 calculation were performed using nonlinear regression of GraphPad Prism software. […] Table 2: GLP-1 Activity of the compounds

[1] = Pharmacokinetic experiment in rats; format: in vivo; settings: rat, plasma; SD rats, male, intravenous, 0.2 mg/kg, sampling to 72 hours
Procedure: Dulbecco's phosphate buffered saline (DPBS) (Batch No.: F2326001, Shanghai Aladdin Biochemical Technology Co., Ltd.). LC-MS instrument (Thermo TSQ Altis Plus).
SD rats: Male, 180-250g, purchased from Guangdong Vital River Laboratory Animal Technology Co., Ltd.
The test sample powder was accurately weighed and completely dissolved in Dulbecco's phosphate buffered saline free of Ca^2+/Mg^2+, mixed well to obtain a 0.1 mg/mL solution, and administered intravenously at a dose of 2 mL/kg.
After intravenous administration to the rats, approximately 200 µL of venous blood was collected into EDTA-K2 anticoagulant-coated EP tubes pre-dose and post-dose at 0, 0.5, 2, 5, 24, 48, and 72 hours . The blood was centrifuged at 12,000 rpm for 2 minutes. The plasma was collected and stored frozen at -20°C until analysis.
A certain amount of the test sample was accurately weighed and dissolved in DMSO to prepare a 2 mg/mL stock solution. An appropriate amount of the compound stock solution was accurately pipetted and diluted with an acetonitrile-aqueous solution (ACN:H2O=1:1) to prepare a series of standard solutions. […]
After determining the plasma drug concentration by LC-MS, the pharmacokinetic parameters in rats post-administration were calculated using a non-compartmental model with WinNonlin 6.1 software.

T1 sequence (P43220 24-463, species assumed): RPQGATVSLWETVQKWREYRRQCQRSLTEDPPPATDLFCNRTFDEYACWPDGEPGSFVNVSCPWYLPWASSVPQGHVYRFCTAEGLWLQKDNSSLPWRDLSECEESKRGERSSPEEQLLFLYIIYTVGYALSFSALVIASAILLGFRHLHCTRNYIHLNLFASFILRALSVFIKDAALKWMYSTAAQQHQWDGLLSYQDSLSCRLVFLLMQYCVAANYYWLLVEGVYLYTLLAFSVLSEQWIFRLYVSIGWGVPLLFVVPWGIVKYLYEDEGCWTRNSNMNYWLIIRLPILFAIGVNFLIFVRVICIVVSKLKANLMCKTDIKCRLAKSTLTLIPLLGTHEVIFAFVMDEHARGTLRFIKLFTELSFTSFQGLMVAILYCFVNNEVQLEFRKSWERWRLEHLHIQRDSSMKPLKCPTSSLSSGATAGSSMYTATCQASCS

Q: With CC[C@H](C)[C@H](NC(=O)[C@H](Cc1ccccc1)NC(=O)[C@H](CCC(=O)O)NC(=O)[C@H](CCCCNC(=O)COCCOCCNC(=O)COCCOCCNC(=O)CC[C@H](NC(=O)CCCCCCCCCCCCCCCCC(=O)O)C(=O)O)NC(=O)[C@H](C)NC(=O)[C@H](C)NC(=O)[C@H](CCC(N)=O)NC(=O)CNC(=O)[C@H](CCC(=O)O)NC(=O)[C@H](CC(C)C)NC(=O)[C@H](Cc1ccc(O)cc1)NC(=O)[C@H](CO)NC(=O)[C@H](CO)NC(=O)[C@@H](NC(=O)[C@H](CC(=O)O)NC(=O)[C@H](CO)NC(=O)[C@@H](NC(=O)[C@H](Cc1ccccc1)NC(=O)[C@@H](NC(=O)CNC(=O)[C@H](CCC(=O)O)NC(=O)C(C)(C)NC(=O)[C@H](Cc1c[nH]cn1)NC(=O)CN(CCOCCOCCNC(=O)C[C@H](NC(=O)CCCCCCCCCCCCCCC(=O)O)C(=O)O)C(=O)CN)[C@@H](C)O)[C@@H](C)O)C(C)C)C(=O)N[C@@H](C)C(=O)N[C@@H](Cc1c[nH]c2ccccc12)C(=O)N[C@@H](CC(C)C)C(=O)N[C@H](C(=O)N[C@@H](CCCNC(=N)N)C(=O)NCC(=O)N[C@@H](CCCNC(=N)N)C(=O)NCC(=O)O)C(C)C [Example 4] as the molecule, how does the EC50 (GLP-1 receptor) read?
A: The EC50 was 16.9 nM.

Q: With CC[C@H](C)[C@H](NC(=O)[C@H](Cc1ccccc1)NC(=O)[C@H](CCC(=O)O)NC(=O)[C@H](CCCCNC(=O)COCCOCCNC(=O)COCCOCCNC(=O)CC[C@H](NC(=O)CCCCCCCCCCCCCCCCC(=O)O)C(=O)O)NC(=O)[C@H](C)NC(=O)[C@H](C)NC(=O)[C@H](CCC(N)=O)NC(=O)CNC(=O)[C@H](CCC(=O)O)NC(=O)[C@H](CC(C)C)NC(=O)[C@H](Cc1ccc(O)cc1)NC(=O)[C@H](CO)NC(=O)[C@H](CO)NC(=O)[C@@H](NC(=O)[C@H](CC(=O)O)NC(=O)[C@H](CO)NC(=O)[C@@H](NC(=O)[C@H](Cc1ccccc1)NC(=O)[C@@H](NC(=O)CNC(=O)[C@H](CCC(=O)O)NC(=O)C(C)(C)NC(=O)[C@H](Cc1c[nH]cn1)NC(=O)CN(CCOCCOCCNC(=O)CC[C@H](NC(=O)CCCCCCCCCCCCCCC(=O)O)C(=O)O)C(=O)CN)[C@@H](C)O)[C@@H](C)O)C(C)C)C(=O)N[C@@H](C)C(=O)N[C@@H](Cc1c[nH]c2ccccc12)C(=O)N[C@@H](CC(C)C)C(=O)N[C@H](C(=O)N[C@@H](CCCNC(=N)N)C(=O)NCC(=O)N[C@@H](CCCNC(=N)N)C(=O)NCC(=O)O)C(C)C [Example 3] as the molecule, how does the EC50 (GLP-1 receptor) read?
A: Its EC50 is 15.7 nM.

Q: Which AUC(0-t) [1] does the source give for CC[C@H](C)[C@H](NC(=O)[C@H](Cc1ccccc1)NC(=O)[C@H](CCC(=O)O)NC(=O)[C@H](CCCCNC(=O)COCCOCCNC(=O)COCCOCCNC(=O)CC[C@H](NC(=O)CCCCCCCCCCCCCCCCC(=O)O)C(=O)O)NC(=O)[C@H](C)NC(=O)[C@H](C)NC(=O)[C@H](CCC(N)=O)NC(=O)CNC(=O)[C@H](CCC(=O)O)NC(=O)[C@H](CC(C)C)NC(=O)[C@H](Cc1ccc(O)cc1)NC(=O)[C@H](CO)NC(=O)[C@H](CO)NC(=O)[C@@H](NC(=O)[C@H](CC(=O)O)NC(=O)[C@H](CO)NC(=O)[C@@H](NC(=O)[C@H](Cc1ccccc1)NC(=O)[C@@H](NC(=O)CNC(=O)[C@H](CCC(=O)O)NC(=O)C(C)(C)NC(=O)[C@H](Cc1c[nH]cn1)NC(=O)CN(CCNC(=O)C[C@H](NC(=O)CCCCCCCCCCCCCCC(=O)O)C(=O)O)C(=O)CN)[C@@H](C)O)[C@@H](C)O)C(C)C)C(=O)N[C@@H](C)C(=O)N[C@@H](Cc1c[nH]c2ccccc12)C(=O)N[C@@H](CC(C)C)C(=O)N[C@H](C(=O)N[C@@H](CCCNC(=N)N)C(=O)NCC(=O)N[C@@H](CCCNC(=N)N)C(=O)NCC(=O)O)C(C)C [Example 2] here?
A: The AUC(0-t) was 101 µg·h/mL.

Q: What about the EC50 (GLP-1 receptor) of the same molecule?
A: Its EC50 is 9.3 nM.

Q: With CC[C@H](C)[C@H](NC(=O)[C@H](Cc1ccccc1)NC(=O)[C@H](CCC(=O)O)NC(=O)[C@H](CCCCNC(=O)COCCOCCNC(=O)COCCOCCNC(=O)CC[C@H](NC(=O)CCCCCCCCCCCCCCCCC(=O)O)C(=O)O)NC(=O)[C@H](C)NC(=O)[C@H](C)NC(=O)[C@H](CCC(N)=O)NC(=O)CNC(=O)[C@H](CCC(=O)O)NC(=O)[C@H](CC(C)C)NC(=O)[C@H](Cc1ccc(O)cc1)NC(=O)[C@H](CO)NC(=O)[C@H](CO)NC(=O)[C@@H](NC(=O)[C@H](CC(=O)O)NC(=O)[C@H](CO)NC(=O)[C@@H](NC(=O)[C@H](Cc1ccccc1)NC(=O)[C@@H](NC(=O)CNC(=O)[C@H](CCC(=O)O)NC(=O)C(C)(C)NC(=O)[C@H](Cc1c[nH]cn1)NC(=O)CN(CCNC(=O)CC[C@H](NC(=O)CCCCCCCCCCCCCCC(=O)O)C(=O)O)C(=O)[C@@H]1CCCN1)[C@@H](C)O)[C@@H](C)O)C(C)C)C(=O)N[C@@H](C)C(=O)N[C@@H](Cc1c[nH]c2ccccc12)C(=O)N[C@@H](CC(C)C)C(=O)N[C@H](C(=O)N[C@@H](CCCNC(=N)N)C(=O)NCC(=O)N[C@@H](CCCNC(=N)N)C(=O)NCC(=O)O)C(C)C [Example 17] as the molecule, how does the AUC(0-t) [1] read?
A: Its AUC(0-t) is 99.3 µg·h/mL.

Q: What about the EC50 (GLP-1 receptor) of the same molecule?
A: The EC50 was 5.7 nM.

— patent EP4806909A1, “GLP-1 COMPOUND, AND PREPARATION METHOD THEREFOR AND USE THEREOF” (Shenzhen Salubris Pharmaceuticals Co., Ltd., priority 2023, dated 2025)
